Reference: patent US12552783B2, “Modulators of proteolysis and associated methods of use” (Arvinas Operations, Inc., priority 2018, dated 2026)

Biological target: KRas (Homo sapiens, UniProt P01116, G12C)
Test: KRas degradation in NCI-H2030 cells by Western blot, normalized to GAPDH (data of Table 14)
Type: cell-based
Set-up: host or cells: NCI-H2030
Details: for Dmax: NCI-H2030
Outline: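 Cells plated overnight, switched to FBS-free medium for 24 h, then treated (0.3, 1, 3 μM final; 0.1% DMSO) for 24 h if VHL-based, otherwise 72 h. RIPA lysates (10 μg protein) blotted for KRas, signal normalized to GAPDH and compared with DMSO.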

Row | Structure (SMILES) | Percent Degradation at Indicated Concentration (μM) (H2030, 0.3 μM) | Percent Degradation at Indicated Concentration (μM) (H2030, 1 μM) | Percent Degradation at Indicated Concentration (μM) (H2030, 3 μM) | Dmax [%] | further results
1 | CCC(=O)N1CCN(c2nc(NCCC(=O)N(C)CCOCCOc3cc(-c4scnc4C)ccc3CNC(=O)[C@@H]3C[C@@H](O)CN3C(=O)[C@@H](c3cc(C)no3)C(C)C)nc3c(F)c(-c4cc(O)cc5ccccc45)c(Cl)cc23)CC1 [compound 330, (2S,4R)-N-(2-(2-(2-(3-((6-chloro-8-fluoro-7-(3-hydroxynaphthalen-1-yl)-4-(4-propionylpiperazin-1-yl)quinazolin-2-yl)amino)-N-methylpropanamido)ethoxy)ethoxy)-4-(4-methylthiazol-5-yl)benzyl)-4-hydroxy-1-((R)-3-methyl-2-(3-methylisoxazol-5-yl)butanoyl)pyrrolidine-2-carboxamide] |  |  |  |  | Percent Degradation at Indicated Concentration (μM): 0.3 (H2030 cells, 0.3 μM): C (C ≤ 35); Percent Degradation at Indicated Concentration (μM): 1 (H2030 cells, 1 μM): C (C ≤ 35); Percent Degradation at Indicated Concentration (μM): 3 (H2030 cells, 3 μM): C (C ≤ 35); Dmax (H2030 cells): ≤ 35%
2 | C=CC(=O)N1CCN(c2nc(NCCC(=O)N(C)CCOc3cc(-c4scnc4C)ccc3CNC(=O)[C@@H]3C[C@@H](O)CN3C(=O)[C@H](c3cc(C)no3)C(C)C)nc3c(F)c(-c4c(O)cccc4F)c(Cl)cc23)CC1 (atropisomer, axis not shown) [compound 127, (25,4R)-N-(2-(2-(3-(((S)-4-(4-acryloylpiperazin-1-yl)-6-chloro-8-fluoro-7-(2-fluoro-6-hydroxyphenyl)quinazolin-2-yl)amino)-N-methylpropanamido)ethoxy)-4-(4-methylthiazol-5-yl)benzyl)-4-hydroxy-1-((S)-3-methyl-2-(3-methylisoxazol-5-yl)butanoyl)pyrrolidine-2-carboxamide] | C (Percent Degradation: C ≤ 35) | C (Percent Degradation: C ≤ 35) | C (Percent Degradation: C ≤ 35) | ≤ 35 | 
3 | C=CC(=O)N1CCN(c2nc(O[C@H](C)CN3CCC(OCCOCCOc4ccc5c(c4)CN(C4CCC(=O)NC4=O)C5=O)CC3)nc3c2CCN(c2cc(O)cc4ccccc24)C3)CC1 (stereo partly drawn) [compound 422, 3-(5-(2-(2-((1-((R)-2-((4-(4-acryloylpiperazin-1-yl)-7-(3-hydroxynaphthalen-1-yl)-5,6,7 ,8-tetrahydropyrido[3,4-d]pyrimidin-2-yl)oxy)propyl)piperidin-4-yl)oxy)ethoxy)ethoxy)-1-oxoisoindolin-2-yl)piperidine-2,6-dione] |  |  |  |  | Percent Degradation at Indicated Concentration (μM) (H2030 cells, 0.3 μM): C (Percent Degradation: C ≤ 35); Percent Degradation at Indicated Concentration (μM) (H2030 cells, 1 μM): C (Percent Degradation: C ≤ 35); Percent Degradation at Indicated Concentration (μM) (H2030 cells, 3 μM): C (Percent Degradation: C ≤ 35)
4 | C=CC(=O)N1CCN(c2nc(NCCC(=O)N(C)CCOCCOCCOCCOCC(=O)N[C@H](C(=O)N3C[C@H](O)C[C@H]3C(=O)N[C@@H](C)c3ccc(-c4scnc4C)cc3)C(C)(C)C)nc3c(F)c(-c4c(O)cccc4F)c(Cl)cc23)CC1 (atropisomer, axis not shown) [compound 211, (2S,4R)-1-((S)-21-(((S)-4-(4-acryloylpiperazin-1-yl)-6-chloro-8-fluoro-7-(2-fluoro-6-hydroxyphenyl)quinazolin-2-yl)amino)-2-(tert-butyl)-18-methyl-4,19-dioxo-6,9,12,15-tetraoxa-3,18-diazahenicosanoyl)-4-hydroxy-N-((S)-1-(4-(4-methylthiazol-5-yl)phenyl)ethyl)pyrrolidine-2-carboxamide] |  |  | C (Percent Degradation: C ≤ 35) |  | 
5 | Cc1ncsc1-c1ccc([C@H](C)NC(=O)[C@@H]2C[C@@H](O)CN2C(=O)[C@@H](NC(=O)COCCOCCN(C)C(=O)CCNc2nc(N3CCN(C(=O)C(O)O)CC3)c3cc(Cl)c(-c4c(O)cccc4F)c(F)c3n2)C(C)(C)C)cc1 (atropisomer, axis not shown) [compound 237, (2S,4R)-1-((S)-2-(tert-butyl)-15-(((R)-6-chloro-4-(4-(2,2-dihydroxyacetyl)piperazin-1-yl)-8-fluoro-7-(2-fluoro-6-hydroxyphenyl)quinazolin-2-yl)amino)-12-methyl-4,13-dioxo-6,9-dioxa-3,12-diazapentadecanoyl)-4-hydroxy-N-((S)-1-(4-(4-methylthiazol-5-yl)phenyl)ethyl)pyrrolidine-2-carboxamide] | C (Percent Degradation: C ≤ 35) | C (Percent Degradation: C ≤ 35) | C (Percent Degradation: C ≤ 35) | ≤ 35 | 
6 | Cc1ncsc1-c1ccc([C@H](C)NC(=O)[C@@H]2C[C@@H](O)CN2C(=O)[C@@H](NC(=O)COCCOCCOCCN(C)C(=O)CCNc2nc(N3CCN(C(=O)C(O)O)CC3)c3cc(Cl)c(-c4c(O)cccc4F)c(F)c3n2)C(C)(C)C)cc1 (atropisomer, axis not shown) [compound 239, (2S4R)-1-((S)-2-(tert-butyl)-18-((6-chloro-4-(4-(2,2-dihydroxyacetyl)piperazin-1-yl)-8-fluoro-7-((R)-2-fluoro-6-hydroxyphenyl)quinazolin-2-yl)amino)-15-methyl-4,16-dioxo-6,9,12-trioxa-3,15-diazaoctadecanoyl)-4-hydroxy-N-((S)-1-(4-(4-methylthiazol-5-yl)phenyl)ethyl)pyrrolidine-2-carboxamide,] |  |  |  |  | Percent Degradation at Indicated Concentration (μM) (H2030 cells, 0.3 μM): C (Percent Degradation: C ≤ 35); Percent Degradation at Indicated Concentration (μM) (H2030 cells, 1 μM): C (Percent Degradation: C ≤ 35); Percent Degradation at Indicated Concentration (μM) (H2030 cells, 3 μM): C (Percent Degradation: C ≤ 35); Dmax (H2030 cells): ≤ 35%
7 | C=CC(=O)N1CCN(c2nc(NCCC(=O)N(C)CCOCCOCCOCCOCCOc3cc(-c4scnc4C)ccc3CNC(=O)[C@@H]3C[C@@H](O)CN3C(=O)[C@@H](c3cc(C)no3)C(C)C)nc3c(F)c(-c4cc(O)cc5ccccc45)c(Cl)cc23)CC1 [compound 345, (2S,4R)-N-(2-((18-((4-(4-acryloylpiperazin-1-yl)-6-chloro-8-fluoro-7-(3-hydroxynaphthalen-1-yl)quinazolin-2-yl)amino)-15-methyl-16-oxo-3,6,9,12-tetraoxa-15-azaoctadecyl)oxy)-4-(4-methylthiazol-5-yl)benzyl)-4-hydroxy-1-((R)-3-methyl-2-(3-methylisoxazol-5-yl)butanoyl)pyrrolidine-2-carboxamide] |  |  |  |  | Percent Degradation at Indicated Concentration (μM): 0.3 (H2030 cells, 0.3 μM): C (C ≤ 35); Percent Degradation at Indicated Concentration (μM): 1 (H2030 cells, 1 μM): C (C ≤ 35); Percent Degradation at Indicated Concentration (μM): 3 (H2030 cells, 3 μM): C (C ≤ 35); Dmax (H2030 cells): ≤ 35%
8 | CN(CCOCCOCCOCCOc1ccc2c(c1)CN(C1CCC(=O)NC1=O)C2=O)C(=O)CCNc1nc(N2CCN(C(N)=O)CC2)c2cc(Cl)c(-c3cc(O)cc4ccccc34)c(F)c2n1 (stereo not shown) [compound 39, 4-(6-chloro-2-((1-((2-(2,6-dioxopiperidin-3-yl)-1-oxoisoindolin-5-yl)oxy)-12-methyl-13-oxo-3,6,9-trioxa-12-azapentadecan-15-yl)amino)-8-fluoro-7-(3-hydroxynaphthalen-1-yl)quinazolin-4-yl)piperazine-1-carboxamide] | C (Percent Degradation: C ≤ 35) | C (Percent Degradation: C ≤ 35) | C (Percent Degradation: C ≤ 35) | ≤ 35 | 
9 | C=CC(=O)N1CCN(c2nc(NCCC(=O)N(C)CCOCCOCCOCCOc3cc(-c4scnc4C)ccc3CNC(=O)[C@@H]3C[C@@H](O)CN3C(=O)[C@H](c3cc(C)no3)C(C)C)nc3c(F)c(-c4cc(O)cc5ccccc45)c(Cl)cc23)CC1 [compound 344] | C (Percent Degradation: C ≤ 35) | C (Percent Degradation: C ≤ 35) | C (Percent Degradation: C ≤ 35) | ≤ 35 | 
10 | CN[C@@H](C)C(=O)N[C@H](C(=O)N1CCC[C@H]1c1nc(-c2ccc(OCCOCCOCCOCCN(C)C(=O)CCNc3nc(N4CCN(C(C)=O)CC4)c4cc(Cl)c(-c5cc(O)cc6ccccc56)c(F)c4n3)c3ccccc23)cs1)C1CCCCC1 [compound 268, 3-((4-(4-acetylpiperazin-1-yl)-6-chloro-8-fluoro-7-(3-hydroxynaphthalen-1-yl)quinazolin-2-yl)amino)-N-(2-(2-(2-(2-((4-(2-((S)-1-((S)-2-cyclohexyl-2-((S)-2-(methylamino)propan-amido)acetyl)pyrrolidin-2-yl)thiazol-4-yl)naphthalen-1-yl)oxy)ethoxy)ethoxy)eth-oxy)ethyl)-N-methylpropanamide] | C (Percent Degradation: C ≤ 35) | C (Percent Degradation: C ≤ 35) | C (Percent Degradation: C ≤ 35) | ≤ 35 | 
11 | C=CC(=O)N1CCN(c2nc(NCCC(=O)N(C)CCOCCOCCOCCOc3cc(-c4scnc4C)ccc3CNC(=O)[C@@H]3C[C@@H](O)CN3C(=O)[C@@H](c3cc(C)no3)C(C)C)nc3c(F)c(-c4cc(O)cc5ccccc45)c(Cl)cc23)CC1 [compound 343, (2S,4R)-N-(2-((15-((4-(4-acryloylpiperazin-1-yl)-6-chloro-8-fluoro-7-(3-hydroxynaphthalen-1-yl)quinazolin-2-yl)amino)-12-methyl-13-oxo-3,6,9-trioxa-12-azapentadecyl)oxy)-4-(4-methylthiazol-5-yl)benzyl)-4-hydroxy-1-((R)-3-methyl-2-(3-methylisoxazol-5-yl)butanoyl)pyrrolidine-2-carboxamide] | C (Percent Degradation: C ≤ 35) | C (Percent Degradation: C ≤ 35) | C (Percent Degradation: C ≤ 35) | ≤ 35 | 
